Measured values from PubChem BioAssay AID652066 (The Scripps Research Institute Molecular Screening Center, 2013).

Biological target: Nuclear receptor coactivator 3 (Homo sapiens) (UniProt Q9Y6Q9)
Assay: SRC-3 protein downregulation in breast cancer cells – cell-based, MCF-7, Western blot, powder samples, mechanism study for SRC-3 inhibitor probe project, late-stage follow-up (AID 652066)
Conditions: MCF-7 SRC-3 protein level, 24 h

Nuclear receptor coactivator 3 (Homo sapiens), sequence (Q9Y6Q9 whole entry, looked up): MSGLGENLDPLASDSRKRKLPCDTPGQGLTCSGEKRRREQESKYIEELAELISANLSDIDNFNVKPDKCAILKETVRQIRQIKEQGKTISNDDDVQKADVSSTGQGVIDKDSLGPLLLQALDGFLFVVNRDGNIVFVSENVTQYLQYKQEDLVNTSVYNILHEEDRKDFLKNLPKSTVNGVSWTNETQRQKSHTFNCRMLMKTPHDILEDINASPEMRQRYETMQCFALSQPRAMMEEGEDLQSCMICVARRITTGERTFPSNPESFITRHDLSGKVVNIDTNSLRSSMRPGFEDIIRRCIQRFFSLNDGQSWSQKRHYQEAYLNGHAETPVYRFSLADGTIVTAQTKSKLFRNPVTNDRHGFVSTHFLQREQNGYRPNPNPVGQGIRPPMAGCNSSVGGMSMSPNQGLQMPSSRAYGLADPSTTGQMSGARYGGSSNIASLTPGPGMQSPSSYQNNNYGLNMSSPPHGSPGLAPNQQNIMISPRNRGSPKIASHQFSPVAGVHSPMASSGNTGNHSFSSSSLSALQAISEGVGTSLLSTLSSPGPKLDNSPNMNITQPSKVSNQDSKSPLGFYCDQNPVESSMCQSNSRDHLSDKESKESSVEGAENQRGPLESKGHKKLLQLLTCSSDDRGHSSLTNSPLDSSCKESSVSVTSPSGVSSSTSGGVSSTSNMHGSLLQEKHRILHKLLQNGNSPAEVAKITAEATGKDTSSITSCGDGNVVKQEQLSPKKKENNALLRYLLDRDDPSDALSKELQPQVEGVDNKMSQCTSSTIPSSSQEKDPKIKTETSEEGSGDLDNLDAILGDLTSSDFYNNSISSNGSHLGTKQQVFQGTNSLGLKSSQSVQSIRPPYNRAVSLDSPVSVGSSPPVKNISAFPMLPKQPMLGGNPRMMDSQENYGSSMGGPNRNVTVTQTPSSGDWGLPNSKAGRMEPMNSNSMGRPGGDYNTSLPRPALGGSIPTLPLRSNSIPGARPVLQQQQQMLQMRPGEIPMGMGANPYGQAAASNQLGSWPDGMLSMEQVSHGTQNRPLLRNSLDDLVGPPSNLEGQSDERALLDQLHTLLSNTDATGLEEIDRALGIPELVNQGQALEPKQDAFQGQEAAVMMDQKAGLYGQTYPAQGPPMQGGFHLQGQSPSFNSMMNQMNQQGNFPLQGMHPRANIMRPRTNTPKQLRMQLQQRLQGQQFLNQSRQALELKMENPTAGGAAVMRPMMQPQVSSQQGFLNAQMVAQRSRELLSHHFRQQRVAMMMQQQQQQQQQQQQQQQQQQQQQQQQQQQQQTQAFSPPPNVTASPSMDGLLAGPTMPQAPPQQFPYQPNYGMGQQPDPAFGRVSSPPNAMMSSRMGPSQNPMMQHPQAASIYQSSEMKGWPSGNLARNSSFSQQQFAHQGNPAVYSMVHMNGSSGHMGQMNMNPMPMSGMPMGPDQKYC

IC50	Compound
< 2000 nM	O=C(Nc1nc(-c2ccccn2)cs1)c1cccc(S(=O)(=O)N2CCOCC2)c1
< 400 nM	O=C(CCl)N1N=C(c2ccco2)CC1c1cccs1 (stereo unspecified)
< 2000 nM	O=C(CCl)N1N=C(c2ccco2)CC1c1ccco1 (stereo unspecified)
< 2000 nM	NC(=O)c1sc2nc3c(c(-c4ccco4)c2c1N)CCC3
< 2000 nM	COc1cc2c(cc1OC)C(NC(=O)C(F)(F)F)CNC2=O (stereo unspecified)
< 400 nM	COc1cc(C2c3cc4c(cc3C(OC3OC5COC(c6cccs6)OC5C(O)C3O)C3COC(=O)C23)OCO4)cc(OC)c1O (stereo unspecified)
